We go through 14 compounds from patent US20230219931A1, “FUSED HETEROARYL HYDROXAMATES AS STING AGONISTS” (BiSiChem Co., Ltd., priority 2022, published 2023).

In this test the test system is ISG reporter activity in THP1-Dual cell. In words: ISG reporter assay. In kind it is cell-based. Particulars: Homo sapiens, compounds incubated with cells for 24 hours, QUANTI-Blue, absorbance at 655 nm. As to the method:
[Worded in the source for another cell line; this cell line is reported under the same test.] THP1-Blue cells (cat. no. thp-isg) were purchased from InvivoGen (Sandiago, USA). Penicillin—streptomycin (cat. no. L0022-100), Fetal Bovine Serum (FBS) (cat. no. S1480-500) and Roswell Park Memorial Institute (RPMI) 1640 media (cat. L0498-500) were purchased from biowest (Nuaille, France). Zeocin (cat. no. ant-zn-OS) and Normocin (cat. no. ant-nr-1) were purchased from InvivoGen (Sandiago, USA). QUANTI-Blue™ (cat. no. rep-qbs) was purchased from InvivoGen. THP1-Blue cells were cultured in RPMI 1640 medium with 10% heat-inactivated FBS, 100 μg/ml Normocin, 100 μg/ml Zeocin and 100 U/ml-100 μg/ml penicillin-streptomycin. The cells were incubated at 37° C. in a humidified atmosphere of 5% CO2.
THP1-Blue cells were seeded at 5×10^4 cells/well (90 μl/well). 10 μl of compounds were added to the cells and incubated for 24 hours. 20 μl of cell culture supernatant was dispensed new 96-well plate (cat. no. 30096) with 180 μl of QUANTI-Blue™ solution and incubated for 15 minutes at 37° C. The absorbance was measured by Varioskan Lux (Thermofisher Scientific, USA) at 655 nm.
On the technique in general: In a reporter assay the amount or activity of a reporter protein is the signal.

Structures are written as SMILES. Counter-ions that a name gives are not always drawn. Where only a bound is given, the exact number is not on record here.

As usually defined, the EC50 is the concentration needed to bring the measured effect to its halfway point. Higher therefore signals lower potency in that assay.

For the compound `CCn1nc(C)cc1C(=O)Nc1nc2cc(C(N)=O)cc(OC)c2n1C/C=C/Cn1c(NC(=O)c2cc(C)nn2CC)nc2cc(C(N)=O)cc(OCC#CC3CCN(S(C)(=O)=O)CC3)c21` [Example 19, (E)-1-(4-(5-carbamoyl-2-(1-ethyl-3-methyl-1H-pyrazole-5-carboxamido)-7-((3-(1-(methylsulfonyl)piperidin-4-yl)prop-2-yn-1-yl)oxy)-1H-benzo[d]imidazol-1-yl)but-2-en-1-yl)-2-(1-ethyl-3-methyl-1H-pyrazole-5-carboxamido)-7-methoxy-1H-benzo[d]imidazole-5-carboxamide], the EC50 was less than 50 nM.

`CCn1nc(C)cc1C(=O)Nc1nc2cc(C(N)=O)cc(OC)c2n1C/C=C/Cn1c(NC(=O)c2cc(C)nn2CC)nc2cc(C(N)=O)cc(OCC#CC3CCN(S(=O)(=O)C(C)C)CC3)c21` [Example 20, (E)-1-(4-(5-carbamoyl-2-(1-ethyl-3-methyl-1H-pyrazole-5-carboxamido)-7-((3-(1-(isopropylsulfonyl)piperidin-4-yl)prop-2-yn-1-yl)oxy)-1H-benzo[d]imidazol-1-yl)but-2-en-1-yl)-2-(1-ethyl-3-methyl-1H-pyrazole-5-carboxamido)-7-methoxy-1H-benzo[d]imidazole-5-carboxamide] returned an EC50 of less than 50 nM.

`CCn1nc(C)cc1C(=O)Nc1nc2cc(C(N)=O)cc(OC)c2n1C/C=C/Cn1c(NC(=O)c2cc(C)nn2CC)nc2cc(C(N)=O)cc(OCC#CC3CCN(C(=O)c4cc(C)nn4CC)CC3)c21` [Example 13, (E)-1-(4-(5-carbamoyl-2-(1-ethyl-3-methyl-1H-pyrazole-5-carboxamido)-7-methoxy-1H-benzo[d]imidazol-1-yl)but-2-en-1-yl)-7-((3-(1-(1-ethyl-3-methyl-1H-pyrazole-5-carbonyl)piperidin-4-yl)prop-2-yn-1-yl)oxy)-2-(1-ethyl-3-methyl-1H-pyrazole-5-carboxamido)-1H-benzo[d]imidazole-5-carboxamide]: the EC50 was less than 50 nM.

On to `CCn1nc(C)cc1C(=O)Nc1nc2cc(C(N)=O)cc(OC)c2n1C/C=C/Cn1c(NC(=O)c2cc(C)nn2CC)nc2cc(C(N)=O)cc(OCC#CCC3CCN(C(=O)OC(C)(C)C)C3)c21` (centres unmarked) [Example 51, tert-butyl (E)-3-(4-((5-carbamoyl-1-(4-(5-carbamoyl-2-(1-ethyl-3-methyl-1H-pyrazole-5-carboxamido)-7-methoxy-1H-benzo[d]imidazol-1-yl)but-2-en-1-yl)-2-(1-ethyl-3-methyl-1H-pyrazole-5-carboxamido)-1H-benzo[d]imidazol-7-yl)oxy)but-2-yn-1-yl)pyrrolidine-1-carboxylate], for which the EC50 was less than 50 nM.

In turn, `CCn1nc(C)cc1C(=O)Nc1nc2cc(C(=O)NOC)cc(OC)c2n1C/C=C/Cn1c(NC(=O)c2cc(C)nn2CC)nc2cc(C(N)=O)cc(OCC#CCN3CCN(C(=O)OC(C)(C)C)CC3)c21` [Example 36, tert-butyl (E)-4-(4-((5-carbamoyl-2-(1-ethyl-3-methyl-1H-pyrazole-5-carboxamido)-1-(4-(2-(1-ethyl-3-methyl-1H-pyrazole-5-carboxamido)-7-methoxy-5-(methoxycarbamoyl)-1H-benzo[d]imidazol-1-yl)but-2-en-1-yl)-1H-benzo[d]imidazol-7-yl)oxy)but-2-yn-1-yl)piperazine-1-carboxylate] came in with an EC50 of 50 to 500 nM.

The compound `CCN(CC)S(=O)(=O)N1CCC(C#CCOc2cc(C(N)=O)cc3nc(NC(=O)c4cc(C)nn4CC)n(C/C=C/Cn4c(NC(=O)c5cc(C)nn5CC)nc5cc(C(N)=O)cc(OC)c54)c23)CC1` [Example 25, (E)-1-(4-(5-carbamoyl-2-(1-ethyl-3-methyl-1H-pyrazole-5-carboxamido)-7-methoxy-1H-benzo[d]imidazol-1-yl)but-2-en-1-yl)-7-((3-(1-(N,N-diethylsulfamoyl)piperidin-4-yl)prop-2-yn-1-yl)oxy)-2-(1-ethyl-3-methyl-1H-pyrazole-5-carboxamido)-1H-benzo[d]imidazole-5-carboxamide] displayed an EC50 of less than 50 nM.

Take `CCn1nc(C)cc1C(=O)Nc1nc2cc(C(N)=O)cc(OC)c2n1C/C=C/Cn1c(NC(=O)c2cc(C)nn2CC)nc2cc(C(N)=O)cc(OCC#CC3CCN(C(=O)N4CCOCC4)CC3)c21` [Example 15, (E)-1-(4-(5-carbamoyl-2-(1-ethyl-3-methyl-1H-pyrazole-5-carboxamido)-7-((3-(1-(morpholine-4-carbonyl)piperidin-4-yl)prop-2-yn-1-yl)oxy)-1H-benzo[d]imidazol-1-yl)but-2-en-1-yl)-2-(1-ethyl-3-methyl-1H-pyrazole-5-carboxamido)-7-methoxy-1H-benzo[d]imidazole-5-carboxamide]: the EC50 was less than 50 nM.

In turn, `CCn1nc(C)cc1C(=O)Nc1nc2cc(C(N)=O)cc(OC)c2n1C/C=C/Cn1c(NC(=O)c2cc(C)nn2CC)nc2cc(C(N)=O)cc(OCC#CC3CCN(S(=O)(=O)N4CCCC4)CC3)c21` [Example 26, (E)-1-(4-(5-carbamoyl-2-(1-ethyl-3-methyl-1H-pyrazole-5-carboxamido)-7-((3-(1-(pyrrolidin-1-ylsulfonyl)piperidin-4-yl)prop-2-yn-1-yl)oxy)-1H-benzo[d]imidazol-1-yl)but-2-en-1-yl)-2-(1-ethyl-3-methyl-1H-pyrazole-5-carboxamido)-7-methoxy-1H-benzo[d]imidazole-5-carboxamide] returned a half-maximal effective concentration (EC50) of less than 50 nM.

`CCn1nc(C)cc1C(=O)Nc1nc2cc(C(N)=O)cc(OC)c2n1C/C=C/Cn1c(NC(=O)c2cc(C)nn2CC)nc2cc(C(N)=O)cc(OCC#CC3CCN(S(=O)(=O)C4CCCC4)CC3)c21` [Example 22, (E)-1-(4-(5-carbamoyl-2-(1-ethyl-3-methyl-1H-pyrazole-5-carboxamido)-7-methoxy-1H-benzo[d]imidazol-1-yl)but-2-en-1-yl)-7-((3-(1-(cyclopentylsulfonyl)piperidin-4-yl)prop-2-yn-1-yl)oxy)-2-(1-ethyl-3-methyl-1H-pyrazole-5-carboxamido)-1H-benzo[d]imidazole-5-carboxamide] showed an EC50 of less than 50 nM.

Turning to `CCn1nc(C)cc1C(=O)Nc1nc2cc(C(N)=O)cc(OC)c2n1C/C=C/Cn1c(NC(=O)c2cc(C)nn2CC)nc2cc(C(N)=O)cc(OCC#CCC3CCN(C(=O)OC4CC4)CC3)c21` [Example 44, cyclopropyl (E)-4-(4-((5-carbamoyl-1-(4-(5-carbamoyl-2-(1-ethyl-3-methyl-1H-pyrazole-5-carboxamido)-7-methoxy-1H-benzo[d]imidazol-1-yl)but-2-en-1-yl)-2-(1-ethyl-3-methyl-1H-pyrazole-5-carboxamido)-1H-benzo[d]imidazol-7-yl)oxy)but-2-yn-1-yl)piperidine-1-carboxylate], the EC50 was less than 50 nM.

Consider `CCn1nc(C)cc1C(=O)Nc1nc2cc(C(=O)NOC)cc(OC)c2n1C/C=C/Cn1c(NC(=O)c2cc(C)nn2CC)nc2cc(C(N)=O)cc(OCC#CCN3CCOCC3)c21` [Example 40, (E)-1-(4-(5-carbamoyl-2-(1-ethyl-3-methyl-1H-pyrazole-5-carboxamido)-7-((4-morpholinobut-2-yn-1-yl)oxy)-1H-benzo[d]imidazol-1-yl)but-2-en-1-yl)-2-(1-ethyl-3-methyl-1H-pyrazole-5-carboxamido)-N,7-dimethoxy-1H-benzo[d]imidazole-5-carboxamide], for which the concentration for a half-maximal effect (EC50) is 50 to 500 nM.

`CCn1nc(C)cc1C(=O)Nc1nc2cc(C(N)=O)cc(OC)c2n1C/C=C/Cn1c(NC(=O)c2cc(C)nn2CC)nc2cc(C(N)=O)cc(OCC#CC3CCN(C(=O)N4CCN(C(=O)OC(C)(C)C)CC4)CC3)c21` [Example 16, tert-butyl (E)-4-(4-(3-((5-carbamoyl-1-(4-(5-carbamoyl-2-(1-ethyl-3-methyl-1H-pyrazole-5-carboxamido)-7-methoxy-1H-benzo[d]imidazol-1-yl)but-2-en-1-yl)-2-(1-ethyl-3-methyl-1H-pyrazole-5-carboxamido)-1H-benzo[d]imidazol-7-yl)oxy)prop-1-yn-1-yl)piperidine-1-carbonyl)piperazine-1-carboxylate] came in with a half-maximal effective concentration (EC50) of less than 50 nM.

Regarding `CCn1nc(C)cc1C(=O)Nc1nc2cc(C(N)=O)cc(OC)c2n1C/C=C/Cn1c(NC(=O)c2cc(C)nn2CC)nc2cc(C(N)=O)cc(OCC#CC3CCN(C(=O)N4CCNCC4)CC3)c21` [Example 17, (E)-1-(4-(5-carbamoyl-2-(1-ethyl-3-methyl-1H-pyrazole-5-carboxamido)-7-((3-(1-(piperazine-1-carbonyl)piperidin-4-yl)prop-2-yn-1-yl)oxy)-1H-benzo[d]imidazol-1-yl)but-2-en-1-yl)-2-(1-ethyl-3-methyl-1H-pyrazole-5-carboxamido)-7-methoxy-1H-benzo[d]imidazole-5-carboxamide hydrochloride], the concentration for a half-maximal effect (EC50) is less than 50 nM.

`CCn1nc(C)cc1C(=O)Nc1nc2cc(C(N)=O)cc(OC)c2n1C/C=C/Cn1c(NC(=O)c2cc(C)nn2CC)nc2cc(C(N)=O)cc(OCC#CC3CCN(C(=O)OC(C)C)CC3)c21` [Example 5, isopropyl (E)-4-(3-((5-carbamoyl-1-(4-(5-carbamoyl-2-(1-ethyl-3-methyl-1H-pyrazole-5-carboxamido)-7-methoxy-1H-benzo[d]imidazol-1-yl)but-2-en-1-yl)-2-(1-ethyl-3-methyl-1H-pyrazole-5-carboxamido)-1H-benzo[d]imidazol-7-yl)oxy)prop-1-yn-1-yl)piperidine-1-carboxylate] had an EC50 of less than 50 nM.
